Reference: patent publication US7608625B2, “Method for treating bruxism and bruxism-related diseases” (Eisai R & D Management Co., Ltd., priority 2003, dated 2009)
Counter-ions that a name gives are not always drawn.

How the values were obtained:
bruxism patient [1] = experiment: Temporal muscle activity during sleep in bruxism patients, placebo or proton pump inhibitor (Experiment 2, double-blind); assay type: in vivo, human; conditions: 10 mg
Experimental: A catheter with a pH electrode was inserted into the test subject's esophagus 5 cm above the upper portion of the lower esophageal sphincter and pH was measured while the subject was asleep, while a disposable (bipolar) electrode was affixed to the skin at the front of the temporal muscle on one side. An amount of muscle activity during sleep was measured from 2.5 hours after falling asleep for a 40-minute period. At the same time, video and sound recordings were made that confirmed bruxism during sleep. […] In this Figure, when stable pH levels in the esophagus declined sharply, this was defined as an “decreased esophageal pH episode”. Measurement of temporal muscle activity during sleep in the bruxsim patient medicated with placebo or the proton pump inhibitor In a double-blind trial, test subjects were assigned to either medication with placebo or the proton pump inhibitor [sodium salt of rabeprazole (10 mg; brand name: […] (registered trademark), Eisai Co., Ltd.)] and, according to the method used in experiment 1, the amount of muscle activity during sleep in the front of the temporal muscle on one side was measured for a 4-hour period between 1 and 5 hours after falling asleep. Video and sound recordings were made at the same time that confirmed bruxism during sleep. […] A paired t test was used to test for significance, with P<0.05 defined as indicating a statistically significant difference.

bruxism patient [2] = experiment: Frequency of bruxism episodes during sleep in bruxism patients, placebo, PPI, H2RA or the combination (Experiment 3, double-blind); assay type: in vivo, human; conditions: FIG. 3; bruxism patients n=9; 10 mg of each drug; 4-hour period between 1 and 5 hours after falling asleep; vs placebo; paired t test, P<0.05 significant
Experimental: A catheter with a pH electrode was inserted into the test subject's esophagus 5 cm above the upper portion of the lower esophageal sphincter and pH was measured while the subject was asleep, while a disposable (bipolar) electrode was affixed to the skin at the front of the temporal muscle on one side. An amount of muscle activity during sleep was measured from 2.5 hours after falling asleep for a 40-minute period. At the same time, video and sound recordings were made that confirmed bruxism during sleep. […] In this Figure, when stable pH levels in the esophagus declined sharply, this was defined as an “decreased esophageal pH episode”. […] According to the methods used in experiment 1, the amount of muscle activity during sleep in the front of the temporal muscle on one side was measured for a 4-hour period between 1 and 5 hours after falling asleep. […]

COCCCOc1ccnc(C[S+]([O-])c2nc3ccccc3[nH]2)c1C (stereo not shown) [proton pump inhibitor, sodium salt of rabeprazole]
frequency of jaw motion accompanying rhythmical temporal muscle activity (bruxism episode) (bruxism patient [1]; FIG. 2(A), one bruxism patient, 4-hour period between 1 and 5 hours after falling asleep, compared to placebo): substantial decline | frequency of bruxism episodes per hour of sleep (bruxism patient [1]; FIG. 2(B), bruxism patients n=8, vs placebo, paired t test, ****P<0.0001): significantly reduces | duration of bruxism episodes per hour of sleep (bruxism patient [1]; FIG. 2(B), bruxism patients n=8, vs placebo, paired t test, ***P<0.001): significantly reduces | frequency of bruxism episodes per hour of sleep (bruxism patient [2]): significant reduction
